Source: patent US4258180A, “C6-Modified cyclodextrin sulfate salts as complement inhibitors” (American Cyanamid Company, priority 1979, dated 1981)
Where a name gives a salt, the structure may show the parent alone.

How the values were obtained:
Format in all cases: biochemical
activated human C1 = activated human C1 (Homo sapiens, UniProt P09871); assay: Test Code 026 (C1 inhibitor); conditions: serial dilution assay, twofold dilutions; higher well number indicates higher activity
Excerpt: (§1) An active inhibitor protects C2 from C1 and C4; (ii) Test Code 035 (C3-C9 inhibitor)--This test determines the ability of the late components of human complement (C3-C9) to lyse EAC 142 in the presence of appropriate dilutions of the test compound. An active inhibitor protects EAC 142 from lysis by human C3-C9; (iii) Test Code 036 (C-Shunt inhibitor)--In this test human erythrocytes rendered fragile are lysed in autologous serum via the shunt pathway activated by cobra venom factor in the presence of appropriate dilutions of the test compound. Inhibition of the shunt pathway results in failure of lysis; (iv) Forssman Vasculitis Test--Here, the well known complement dependent lesion, Forssman Vasculitis, is produced in guinea pigs by intradermal injection of rabbit anti-Forssman antiserum. The lesion is measured in terms of diameter, edema and hemorrhage and the extent to which a combined index of these is inhibited by prior intraperitoneal injection of the test compound at 200 mg/kg is then reported, unless otherwise stated; (v) Forssman Shock Test--Lethal shock is produced in guinea pigs by an i.v. injection of anti-Forssman antiserum and the harmonic mean death time of treated guinea pigs is compared with that of simultaneous controls; (vi) Complement Level Reduction Test--In this test, the above dosed guinea pigs, or others, are bled for serum and the complement level is determined in undiluted serum by the capillary tube method of U.S. Pat. No. 3,876,376 and compared to undosed control guinea pigs; and (vii) Cap 50 Test--Here, appropriate amounts of the test compound are added to a pool of guinea pig serum in vitro, after which the undiluted serum capillary tube assay referred to above is run. The concentration of compound inhibiting 50% is reported.

shunt pathway = assay: Test Code 036 (C-Shunt inhibitor), lysis of fragile human erythrocytes in autologous serum, cobra venom factor; conditions: serial dilution assay, twofold dilutions; higher well number indicates higher activity; N = Negative
Excerpt: as §1

[1] = system: late components of human complement (C3-C9); assay: Test Code 035 (C3-C9 inhibitor), lysis of EAC 142; conditions: serial dilution assay, twofold dilutions; higher well number indicates higher activity; N = Negative
Excerpt: as §1

Structure (SMILES)	026 Activity in wells (activated human C1) [wells]	036 Activity in wells (shunt pathway)	035 Activity in wells [1]
O=S(=O)(O)O[C@@H]1[C@@H](OS(=O)(=O)O)[C@H]2O[C@H]3[C@H](OS(=O)(=O)O)[C@@H](OS(=O)(=O)O)[C@@H](O[C@H]4[C@H](OS(=O)(=O)O)[C@@H](OS(=O)(=O)O)[C@@H](O[C@H]5[C@H](OS(=O)(=O)O)[C@@H](OS(=O)(=O)O)[C@@H](O[C@H]6[C@H](OS(=O)(=O)O)[C@@H](OS(=O)(=O)O)[C@@H](O[C@H]7[C@H](OS(=O)(=O)O)[C@@H](OS(=O)(=O)O)[C@@H](O[C@H]8[C@H](OS(=O)(=O)O)[C@@H](OS(=O)(=O)O)[C@@H](O[C@@H]1[C@@H](CBr)O2)O[C@@H]8CBr)O[C@@H]7CBr)O[C@@H]6CBr)O[C@@H]5CBr)O[C@@H]4CBr)O[C@@H]3CBr [β-Cyclo[6-bromo-6-dexoy]dextrin poly(H-sulfate)poly-trimethy] [6,6',6",6'",6"",6'""-Heptabromo-6,6',6",6'",6"",6'"",6"""-heptadeoxy-β-cyclodextrin tetradecakis(H-sulfate), tatradecasalt with trimethylamine]	6	4 wells	3 wells
O=S(=O)(O)O[C@@H]1[C@@H](OS(=O)(=O)O)[C@H]2O[C@H]3[C@H](OS(=O)(=O)O)[C@@H](OS(=O)(=O)O)[C@@H](O[C@H]4[C@H](OS(=O)(=O)O)[C@@H](OS(=O)(=O)O)[C@@H](O[C@H]5[C@H](OS(=O)(=O)O)[C@@H](OS(=O)(=O)O)[C@@H](O[C@H]6[C@H](OS(=O)(=O)O)[C@@H](OS(=O)(=O)O)[C@@H](O[C@H]7[C@H](OS(=O)(=O)O)[C@@H](OS(=O)(=O)O)[C@@H](O[C@H]8[C@H](OS(=O)(=O)O)[C@@H](OS(=O)(=O)O)[C@@H](O[C@@H]1[C@@H](CBr)O2)O[C@@H]8CBr)O[C@@H]7CBr)O[C@@H]6CBr)O[C@@H]5CBr)O[C@@H]4CBr)O[C@@H]3CBr [β-Cyclo[6-bromo-6-deoxy]dextrin poly(H-sulfate)poly-sodium s] [6,6',6",6'",6"",6'"",6"""-Heptabromo-6,6',6",6'",6"",6'"",6"""-heptadeoxy-β-cyclodextrin, tetradecakis(H-sulfate), tetradecasodium salt]	7	5 wells	3 wells
C[C@H]1O[C@@H]2O[C@H]3[C@H](OS(=O)(=O)O)[C@@H](OS(=O)(=O)O)[C@@H](O[C@H]4[C@H](OS(=O)(=O)O)[C@@H](OS(=O)(=O)O)[C@@H](O[C@H]5[C@H](OS(=O)(=O)O)[C@@H](OS(=O)(=O)O)[C@@H](O[C@H]6[C@H](OS(=O)(=O)O)[C@@H](OS(=O)(=O)O)[C@@H](O[C@H]7[C@H](OS(=O)(=O)O)[C@@H](OS(=O)(=O)O)[C@@H](O[C@H]1[C@H](OS(=O)(=O)O)[C@H]2OS(=O)(=O)O)O[C@@H]7C)O[C@@H]6C)O[C@@H]5C)O[C@@H]4C)O[C@@H]3C [α-Cyclo[6-deoxy]dextrin poly(H-sulfate)poly-sodium salt] [6,6',6",6'",6"",6'""-Hexadeoxy-α-cyclodextrin, dodecakis(H-sulfate), dodecasodium salt]	8	4 wells	1 wells
O=S(=O)(O)O[C@@H]1[C@@H](OS(=O)(=O)O)[C@H]2O[C@H]3[C@H](OS(=O)(=O)O)[C@@H](OS(=O)(=O)O)[C@@H](O[C@H]4[C@H](OS(=O)(=O)O)[C@@H](OS(=O)(=O)O)[C@@H](O[C@H]5[C@H](OS(=O)(=O)O)[C@@H](OS(=O)(=O)O)[C@@H](O[C@H]6[C@H](OS(=O)(=O)O)[C@@H](OS(=O)(=O)O)[C@@H](O[C@H]7[C@H](OS(=O)(=O)O)[C@@H](OS(=O)(=O)O)[C@@H](O[C@@H]1[C@@H](CBr)O2)O[C@@H]7CBr)O[C@@H]6CBr)O[C@@H]5CBr)O[C@@H]4CBr)O[C@@H]3CBr [α-Cyclo[6-bromo-6-deoxy]dextrin poly (H-sulfate)poly-sodium ] [6,6',6",6'",6"",6'""-Hexabromo-6,6',6",6'",6"",6'""-hexadeoxy-α-cyclodextrin dodecakis(H-sulfate), dodecasodium salt]	6	4 wells	5 wells
[N-]=[N+]=NC[C@H]1O[C@@H]2O[C@H]3[C@H](OS(=O)(=O)O)[C@@H](OS(=O)(=O)O)[C@@H](O[C@H]4[C@H](OS(=O)(=O)O)[C@@H](OS(=O)(=O)O)[C@@H](O[C@H]5[C@H](OS(=O)(=O)O)[C@@H](OS(=O)(=O)O)[C@@H](O[C@H]6[C@H](OS(=O)(=O)O)[C@@H](OS(=O)(=O)O)[C@@H](O[C@H]7[C@H](OS(=O)(=O)O)[C@@H](OS(=O)(=O)O)[C@@H](O[C@H]1[C@H](OS(=O)(=O)O)[C@H]2OS(=O)(=O)O)O[C@@H]7CN=[N+]=[N-])O[C@@H]6CN=[N+]=[N-])O[C@@H]5CN=[N+]=[N-])O[C@@H]4CN=[N+]=[N-])O[C@@H]3CN=[N+]=[N-] [α-Cyclo[6-azido-6-deoxy]dextrin poly(H-sulfate)poly-sodium s] [6,6',6",6'",6"",6'""-Hexaazido-6,6',6",6'",6"",6'""-hexadeoxy-α-cyclodextrin, dodecakis(H-sulfate), dodecasodium salt]	7	4 wells	1 wells
N#CSC[C@H]1O[C@@H]2O[C@H]3[C@H](OS(=O)(=O)O)[C@@H](OS(=O)(=O)O)[C@@H](O[C@H]4[C@H](OS(=O)(=O)O)[C@@H](OS(=O)(=O)O)[C@@H](O[C@H]5[C@H](OS(=O)(=O)O)[C@@H](OS(=O)(=O)O)[C@@H](O[C@H]6[C@H](OS(=O)(=O)O)[C@@H](OS(=O)(=O)O)[C@@H](O[C@H]7[C@H](OS(=O)(=O)O)[C@@H](OS(=O)(=O)O)[C@@H](O[C@H]1[C@H](OS(=O)(=O)O)[C@H]2OS(=O)(=O)O)O[C@@H]7CSC#N)O[C@@H]6CSC#N)O[C@@H]5CSC#N)O[C@@H]4CSC#N)O[C@@H]3CSC#N [α-Cyclo[6-deoxy-6-thiocyanato]dextrin poly(H-sulfate)poly-tr] [6,6',6",6'",6"",6'""-Hexadeoxy-6,6',6",6'",6"",6'""-hexathiocyanato-α-cyclodextrin, dodecakis(H-sulfate), dodecasalt with trimethylamine]	1	N	N
[N-]=[N+]=NC[C@H]1O[C@@H]2O[C@H]3[C@H](OS(=O)(=O)O)[C@@H](OS(=O)(=O)O)[C@@H](O[C@H]4[C@H](OS(=O)(=O)O)[C@@H](OS(=O)(=O)O)[C@@H](O[C@H]5[C@H](OS(=O)(=O)O)[C@@H](OS(=O)(=O)O)[C@@H](O[C@H]6[C@H](OS(=O)(=O)O)[C@@H](OS(=O)(=O)O)[C@@H](O[C@H]7[C@H](OS(=O)(=O)O)[C@@H](OS(=O)(=O)O)[C@@H](O[C@H]1[C@H](OS(=O)(=O)O)[C@H]2OS(=O)(=O)O)O[C@@H]7CN=[N+]=[N-])O[C@@H]6CN=[N+]=[N-])O[C@@H]5CN=[N+]=[N-])O[C@@H]4CN=[N+]=[N-])O[C@@H]3CN=[N+]=[N-] [α-Cyclo[6-azido-6-deoxy]dextrin poly(H-sulfate)poly-trimethy] [6,6',6",6'",6"",6'""-Hexaazido-6,6',6",6'",6"",6'""-hexadeoxy-α-cyclodextrin, dodecakis(H-sulfate), dodecasalt with trimethylamine]	2	N	N
C[C@H]1O[C@@H]2O[C@H]3[C@H](OS(=O)(=O)O)[C@@H](OS(=O)(=O)O)[C@@H](O[C@H]4[C@H](OS(=O)(=O)O)[C@@H](OS(=O)(=O)O)[C@@H](O[C@H]5[C@H](OS(=O)(=O)O)[C@@H](OS(=O)(=O)O)[C@@H](O[C@H]6[C@H](OS(=O)(=O)O)[C@@H](OS(=O)(=O)O)[C@@H](O[C@H]7[C@H](OS(=O)(=O)O)[C@@H](OS(=O)(=O)O)[C@@H](O[C@H]8[C@H](OS(=O)(=O)O)[C@@H](OS(=O)(=O)O)[C@@H](O[C@H]1[C@H](OS(=O)(=O)O)[C@H]2OS(=O)(=O)O)O[C@@H]8C)O[C@@H]7C)O[C@@H]6C)O[C@@H]5C)O[C@@H]4C)O[C@@H]3C [β-Cyclo[6-deoxy]dextrin poly(H-sulfate)poly-sodium salt] [6,6',6",6'",6"",6'"",6"""-Heptadeoxy-β-cyclodextrin, tetradecakis(H-sulfate), tetradecasodium salt]	9	5 wells	4 wells
